# Source: patent US4207326A, “Antimicrobial quaternary pyrazole derivatives” (Cilag-Chemie A.G., priority 1979, dated 1980)
# Like-named read-outs stand apart in the source and are kept apart here.
# What was measured:
# P. mirabilis = experiment: Antibacterial activity: Minimum Inhibitory Concentration; type: cell-based, Proteus mirabilis NCTC 8559; conditions: P. mirabilis, 37° C., 24 hours
# Protocol: (§1) The antimicrobial activity was determined by inoculation of the test microorganism into suitable growth media containing solutions of the compounds at concentrations of 100, 50, 10, 5, 1.0, 0.5 and 0.1 μg/ml. The reference antibiotics used were Gentamicin for the antibacterial tests and Amphotericin B for the antimycotic and antifungal tests. After incubation the antimicrobial activity was recorded as the Minimal Inhibitory Concentration (M.I.C.), i.e., the lowest concentration preventing macroscopically visible growth, for each test compound against each organism.
# (§2) An initial solution of each formula (I) compound to be tested in sterile distilled water was prepared at a concentration of 1000 μg/ml. With appropriate dilutions using sterile distilled water, additional solutions were prepared at concentrations of 500, 100, 50, 10, 5 and 1 μg/ml.
# (§3) They were cultured and maintained on Tryptone Soy Agar (Oxoid CM 131), with the addition of 10% horse blood for the S. pyogenes.
# (§4) To prepare the organisms as inocula for the test, slopes of this medium were streaked with the organisms and incubated at 37° C. for 24 hours. 4.5 Ml volumes of Brian-Heart Infusion Broth (Oxoid CM 225) were then inoculated with a platinum loop from the agar slope cultures and incubated for 24 hours at 37° C. The final inocula were then prepared by adding 0.1 ml aliquots of the Brain-Heart Infusion Broth cultures to 100 ml volumes of sterile physiological saline.
# (§5) (a) For the test on each of the bacterial strains and each of the test and reference compounds, a series of 8 tubes containing 4.5 ml volumes of Brain-Heart Infusion Broth (Oxoid CM 225) were prepared. To 7 of these were added 0.5 ml volumes of the final solutions of the test compouns, giving final concentrations in the broths of 100, 50, 10, 5, 1.0, 0.5 and 0.1 μg/ml. To the eighth tube in each series was added 0.5 ml of the solvent used and diluted as for the preparation of the 1000 μg/ml solution of the compound. This tube was used as the growth control. The tubes were inoculated with 0.02 ml aliquots of the inocula prepared in accordance with "(a) Bacteria" above, and incubated at 37° C. for 24 hours. The tubes were then examined for evidence of bacterial growth as shown by turbidity of the medium and the lowest concentration of the test compound which prevented bacterial growth was recorded as the Minimal Inhibitory Concentration. This test procedure was carried out on two separate days.
# S. pyogenes = experiment: as above; type: cell-based, Streptococcus pyogenes NCTC 8198; conditions: 24 hours
# Protocol: as §1, §2, §3, §4, §5
# S. aureus = experiment: as above; type: cell-based, Staphylococcus aureus ATCC 6538; conditions: 24 hours
# Protocol: as §1, §2, §3, §4, §5
# P. aeruginosa = experiment: as above; type: cell-based, Pseudomonas aeruginosa ATCC 9027; conditions: P. aeruginosa, 37° C., 24 hours
# Protocol: as §1, §2, §3, §4, §5
# E. coli = experiment: as above; type: cell-based, Escherichia coli ATCC 8739; conditions: 24 hours
# Protocol: as §1, §2, §3, §4, §5
# C. neoformans = experiment: Antimycotic activity: Minimum Inhibitory Concentration; type: cell-based, Cryptococcus neoformans NCPF 3184; conditions: Cryptococcus neoformans, pH 5.5, 30° C., 72 hours
# Protocol: as §1, §2
# The C. neoformans was also maintained on Sabouraud-Dextrose Agar (Oxoid CM 41), but in this case cultures for the preparation of the inoculum were incubated on this agar at 30° C. for 48 hours. A 4.5 ml volume of citric acid-phosphate buffer pH 5.5 plus Yeast-Nitrogen Base (Difco-0392-15) was then inoculated from the agar culture and incubated at 30° C. for 48 hours. A 0.1 ml aliquot of this culture was then added to 100 ml sterile physiological saline to give the final inoculum.
# (§6) (b) For the tests on each of the C. albicans, C. tropicalis and C. neoformans strains and each of the test and reference compounds, a series of 8 tubes containing 4.5 ml volumes of citric acid-phosphate buffer pH 5.5 plus Yeast-Nitrogen Base (Difco 0392-15) were prepared. To 7 of these were added 0.5 ml volumes of the final solutions of the test compounds, giving final concentrations in the broths of 100, 50, 10, 5, 1.0, 0.5 and 0.1 μg/ml. To the eighth tube in each series was added 0.5 ml of the solvent used and diluted as for the preparation of the 1000 μg/ml solution of the compound. This tube was used as the growth control. The tubes were then inoculated with 0.1 ml aliquots of the inocula prepared as in "(b) Fungi" above. The tubes inoculated with the C. albicans and C. tropicalis were inoculated at 37° C. for 72 hours and the tubes inoculated with the C. neoformans straim were incubated at 30° C. for 72 hours. […] The tubes were then examined for evidence of growth as shown by turbidity of the medium and the lowest concentration of the test compound which prevented fungal growth was recorded as the Minimal Inhibitory Concentration. This test procedure was carried out on two separate days.
# C. albicans = experiment: as above; type: cell-based, Candida albicans ATCC 10231
# Protocol: as §1, §2
# (§7) The two species, C. albicans and C. tropicalis, were maintained on Sabouraud-Dextrose Agar (Oxoid CM41) and cultures for the preparation of the inoculum were incubated on this agar at 37° C. for 48 hours. 4.5 Ml volumes of citric acid-phosphate buffer pH 5.5 plus Yeast-Nitrogen Base (Difco 0392-15) were then inoculated from the agar cultures and incubated at 37° C. for 48 hours. 0.1 Ml aliquots of these cultures were then added to 100 ml volumes of sterile physiological saline to give the final inocula.
# as §6
# C. tropicalis = experiment: as above; type: cell-based, Candida tropicalis NCPF 3111; conditions: Candida tropicalis, pH 5.5, 37° C., 72 hours
# Protocol: as §1, §2, §7, §6
# T. rubrum = experiment: Antifungal activity: Minimum Inhibitory Concentration; type: cell-based, Trichophyton rubrum NCPF 197
# Protocol: as §1, §2
# (§8) The A. corymbifera, A. fumigatus, S. schenkii, T. rubrum, T. mentagrophytes, M. canis and P. verrucosa strains were all maintained on Sabouraud-Dextrose Agar (Oxoid CM 41) by incubating for 14 days at 27° C. To prepare the inocula 30 ml volumes of Sabouraud-Liquid medium (Oxoid CM 147) were inoculated from the agar cultures and incubated at 27° C. until heavy uniform growth resulted. The mycelial growth was then broken up by shaking with glass beads.
# (§9) 1 Ml aliquots were removed from each of the cultures for the purpose of making viable counts and the cultures were then held at 4° C. The viable counts were made by preparing serial ten-fold dilutions of the cultures in sterile physiological saline and spreading on plates of Sabouraud-Dextrose Agar (Oxoid CM 41) which were then incubated at 27° C. for 14 days. When the viable counts had confirmed that each of the inocula contained approximately 10^6 colony forming units (C.F.U.) per ml the cultures were withdrawn from the refrigerator and used as the inocula for the tests.
# (§10) (c) For the tests on each of the remaining seven strains and each of the test and reference compounds, a series of 8 tubes containing 4.5 ml volumes of Sabouraud-Liquid Medium (Oxoid CM 147) were prepared. To 7 of these were added 0.5 ml volumes of the final solutions of the test compounds, giving final concentrations in the broths of 100, 50, 10, 5, 1.0, 0.5 and 0.1 μg/ml. To the eighth tube in each series was added 0.5 ml of the solvent used and diluted as for the preparation of the 500 μg/ml solution of the compound. This tube was used as a growth control. The tubes were then inoculated with 0.1 ml aliquots of the inocula prepared as in "(b) Fungi" above. The tubes were then incubated at 27° C. with continuous shaking for a period of one week. The tubes were then examined for evidence of growth as shown by the presence of mycelial growth in the medium and the lowest concentration of the test compound which prevented fungal growth was recorded as the Minimal Inhibitory Concentration. This test procedure was carried out on two separate days.
# P. verrucosa = experiment: as above; type: cell-based, Phialophore verrucosa NCPF 1119
# Protocol: as §1, §2, §8, §9, §10
# S. schenkii = experiment: as above; type: cell-based, Sporotrichon schenkii NCPF 3182
# Protocol: as §1, §2, §8, §9, §10
# T. mentagrophytes = experiment: as above; type: cell-based, Trichophyton mentagrophytes NCPF 410
# Protocol: as §1, §2
# T. mentagrophytes NCPF 410
# as §8, §9, §10
# A. corymbifera = experiment: as above; type: cell-based, Absidia corymbifera NCPF 2001
# Protocol: as §1, §2
# A. corymbifera NCPF 2001
# as §8, §9, §10
# M. canis = experiment: as above; type: cell-based, Microsporum canis NCPF 351
# Protocol: as §1, §2, §8, §9, §10
# A. fumigatus = experiment: as above; type: cell-based, Aspergillus fimigatus (A. fumigatus) NCPF 2140
# Protocol: as §1, §2, §8, §9, §10
compound,measurement,setting,value
Gentamicin [reference compound],Minimum Inhibitory Concentration,P. mirabilis; Day 1,5 µg/mL
same,Minimum Inhibitory Concentration,P. mirabilis; Day 2,5 µg/mL
same,Minimum Inhibitory Concentration,"S. pyogenes; Day 1, 37° C.",0.5 µg/mL
same,Minimum Inhibitory Concentration,"S. pyogenes; Day 2, 37° C.",0.5 µg/mL
same,Minimum Inhibitory Concentration,"S. aureus; Day 1, 37° C.",0.5 µg/mL
same,Minimum Inhibitory Concentration,"S. aureus; Day 2, 37° C.",0.5 µg/mL
same,Minimum Inhibitory Concentration,P. aeruginosa; Day 1,1 µg/mL
same,Minimum Inhibitory Concentration,P. aeruginosa; Day 2,1 µg/mL
same,Minimum Inhibitory Concentration,"E. coli; Day 1, 37° C.",10 µg/mL
same,Minimum Inhibitory Concentration,"E. coli; Day 2, 37° C.",10 µg/mL
"C[C@@H]1[C@H](O)[C@@H](C)/C=C/C=C/C=C/C=C/C=C/C=C/C=C/[C@H](O[C@@H]2O[C@H](C)[C@@H](O)[C@H](N)[C@@H]2O)C[C@@H]2O[C@](O)(C[C@@H](O)C[C@@H](O)[C@H](O)CC[C@@H](O)C[C@@H](O)CC(=O)O[C@H]1C)C[C@H](O)[C@H]2C(=O)O [Amphotericin B, reference compound]",MIC,"C. neoformans; pH 5.5, read-out: Minimum Inhibitory Concentrations, C. neoformans, Day 1",1 µg/mL
same,MIC,"C. neoformans; pH 5.5, read-out: Minimum Inhibitory Concentrations, C. neoformans, Day 2",0.5 µg/mL
same,Minimum Inhibitory Concentrations,"C. albicans; C. albicans, Day 2, pH 5.5, 37° C., 72 hours",1 µg/mL
same,MIC,"C. albicans; Candida albicans, pH 5.5, read-out: Minimum Inhibitory Concentrations",1 µg/mL
same,MIC,"C. tropicalis; pH 5.5, read-out: Minimum Inhibitory Concentrations, C. tropicalis, Day 1",1 µg/mL
same,MIC,"C. tropicalis; pH 5.5, read-out: Minimum Inhibitory Concentrations, C. tropicalis, Day 2",1 µg/mL
same,Minimum Inhibitory Concentration,"T. rubrum; T. rubrum, Day 2, 27° C., one week",50 µg/mL
same,MIC,"T. rubrum; Trichophyton rubrum, read-out: Minimum Inhibitory Concentration",50 µg/mL
same,Minimum Inhibitory Concentration,"P. verrucosa; P. verrucosa, Day 2, 27° C., one week",10 µg/mL
same,MIC,"P. verrucosa; Phialophora verrucosa, read-out: Minimum Inhibitory Concentration",10 µg/mL
same,Minimum Inhibitory Concentration,"S. schenkii; S. schenkii, Day 2, 27° C., one week",50 µg/mL
same,MIC,S. schenkii; read-out: Minimum Inhibitory Concentration,50 µg/mL
same,Minimum Inhibitory Concentration,"T. mentagrophytes; T. mentagrophytes, Day 1, 27° C., one week",50 µg/mL
same,MIC,"T. mentagrophytes; Trichophyton mentagrophytes, read-out: Minimum Inhibitory Concentration",50 µg/mL
same,Minimum Inhibitory Concentration,"A. corymbifera; A. corymbifera, Day 2, 27° C., one week",5 µg/mL
same,MIC,"A. corymbifera; Lichtheimia corymbifera, read-out: Minimum Inhibitory Concentration",5 µg/mL
same,Minimum Inhibitory Concentration,"M. canis; M. canis, Day 2, 27° C., one week",1 µg/mL
same,MIC,"M. canis; Microsporum canis, read-out: Minimum Inhibitory Concentration",1 µg/mL
same,Minimum Inhibitory Concentration,"A. fumigatus; A. fumigatus, Day 2, 27° C., one week",5 µg/mL
same,MIC,"A. fumigatus; Aspergillus fumigatus, read-out: Minimum Inhibitory Concentration",5 µg/mL
